From patent publication US10463644B2, “Uses of sesquiterpene lactone compounds and their derivatives in drugs preparation” (ACCENDATECH, priority 2013, dated 2019)
Where two headings read alike, the source gives them in different places.

Key:
[1] = test system: normal cells; assay: Survival rate of normal cells after test compound is added (flow cytometry, Annexin V-FITC/PI); type: cell-based; settings: 18 h
In short: (§1)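 Mononuclear cells from fresh or cryopreserved clinical samples, isolated by Ficoll gradient and held in serum-free IMDM (1×10^6/mL), received compound for 18 h. After labelling with marker antibodies (CD34+CD38+ for AML), Annexin V-FITC and PI staining was analysed by flow cytometry.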

[2] = test system: IL-1β secreted by synoviocyte; assay: Content of IL-1β in culture supernatant of synoviocyte of RA model rats given test compound; type: in vivo; settings: rat RA model, dose 30 mg/kg.2d; normal control 0.16 ± 0.034, NaCl 0.49 ± 0.136
In short: (§2)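 Rat RA model; dosing 30 mg/kg.2d; normal and NaCl control groups. Synoviocyte culture supernatant collected; TNF-α and PGE2 measured by one established method, IL-1β by a separate method.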

[3] = test system: cancer cells; assay: Survival rate of cancer cells after test compound is added (flow cytometry, Annexin V-FITC/PI, clinical specimen); type: cell-based, patient; settings: Homo sapiens, 18 h, read-out: Survival rate (%) All cells (Stem cells and ordinary cells)
In short: as §1

[4] = test system: cancer stem cells; assay: Survival rate of cancer stem cells after test compound is added (flow cytometry, Annexin V-FITC/PI, clinical specimen); type: cell-based, patient; settings: Homo sapiens, 18 h
In short: as §1

[5] = test system: PGE2 secreted by synoviocyte; assay: Content of PGE2 in culture supernatant of synoviocyte of RA model rats given test compound; type: in vivo; settings: rat RA model, dose 30 mg/kg.2d; normal control 8.34 ± 1.29, NaCl 32.44 ± 10.32
In short: as §2

[6] = read-out: Survival rate (%) All cells (Stem cells and ordinary cells)
[7] = read-out: Survival rate (%) Stem cells
[8] = Head and neck squamous cell carcinomas

SMILES: CCOC(=O)[C@@H]1CCCN1C[C@@H]1C(=O)O[C@H]2[C@H]1CCC1(CC1)[C@@H]1CCC3(CC3)[C@H]21 [Compound 29]
- viability at 10 µM [1, 6]: 96%
- viability at 10 µM [1, 7]: 93%
- viability at 20 µM [1, 6]: 95%
- viability at 20 µM [1, 7]: 92%
- Content of IL-1β in culture supernatant of synoviocyte (x ± s) [2]: 0.34 ± 0.039 ng/mL
- viability at 10 µM ([3]; AML): 91%
- viability at 20 µM ([3]; AML): 88%
- viability at 10 µM ([3]; Brain glioma): 89%
- viability at 20 µM ([3]; Brain glioma): 86%
- viability at 10 µM ([3]; Brain tumor): 94%
- viability at 20 µM ([3]; Brain tumor): 87%
- viability at 10 µM ([3]; Breast cancer): 88%
- viability at 20 µM ([3]; Breast cancer): 81%
- viability at 10 µM ([3]; CLL): 88%
- viability at 20 µM ([3]; CLL): 85%
- viability at 10 µM ([3]; CML): 87%
- viability at 20 µM ([3]; CML): 83%
- viability at 10 µM ([3]; Children hepatoblastoma): 92%
- viability at 20 µM ([3]; Children hepatoblastoma): 89%
- viability at 10 µM ([3]; Colon adenocarcinoma): 87%
- viability at 20 µM ([3]; Colon adenocarcinoma): 83%
- viability at 10 µM ([3]; Colorectal cancer): 91%
- viability at 20 µM ([3]; Colorectal cancer): 88%
- viability at 10 µM ([3]; Gastric cancer): 88%
- viability at 20 µM ([3]; Gastric cancer): 81%
- viability at 10 µM ([3]; Gastrointestinal tumor): 87%
- viability at 20 µM ([3]; Gastrointestinal tumor): 83%
- viability at 10 µM ([3]; Glioma): 91%
- viability at 20 µM ([3]; Glioma): 88%
- viability at 10 µM [3, 8]: 88%
- viability at 20 µM [3, 8]: 85%
- viability at 10 µM ([3]; Laryngeal cancer): 93%
- viability at 20 µM ([3]; Laryngeal cancer): 86%
- viability at 10 µM ([3]; Liver cancer): 92%
- viability at 20 µM ([3]; Liver cancer): 89%
- viability at 10 µM ([3]; Lung adenocarcinoma): 91%
- viability at 20 µM ([3]; Lung adenocarcinoma): 89%
- viability at 10 µM ([3]; Lung cancer): 94%
- viability at 20 µM ([3]; Lung cancer): 87%
- viability at 10 µM ([3]; Malignant melanoma): 91%
- viability at 20 µM ([3]; Malignant melanoma): 87%
- viability at 10 µM ([3]; Nasopharynx cancer): 88%
- viability at 20 µM ([3]; Nasopharynx cancer): 85%
- viability at 10 µM ([3]; Ovarian cancer): 91%
- viability at 20 µM ([3]; Ovarian cancer): 89%
- viability at 10 µM ([3]; Pancreatic cancer): 88%
- viability at 20 µM ([3]; Pancreatic cancer): 89%
- viability at 10 µM ([3]; Prostate cancer): 93%
- viability at 20 µM ([3]; Prostate cancer): 86%
- viability at 10 µM ([3]; Retinoblastoma): 92%
- viability at 20 µM ([3]; Retinoblastoma): 89%
- viability at 10 µM ([3]; Skin cancer): 91%
- viability at 20 µM ([3]; Skin cancer): 87%
- viability at 10 µM ([4]; AML): 84%
- viability at 20 µM ([4]; AML): 78%
- viability at 10 µM ([4]; Brain glioma): 82%
- viability at 20 µM ([4]; Brain glioma): 76%
- viability at 10 µM ([4]; Brain tumor): 87%
- viability at 20 µM ([4]; Brain tumor): 76%
- viability at 10 µM ([4]; Breast cancer): 79%
- viability at 20 µM ([4]; Breast cancer): 72%
- viability at 10 µM ([4]; CLL): 85%
- viability at 20 µM ([4]; CLL): 79%
- viability at 10 µM ([4]; CML): 81%
- viability at 20 µM ([4]; CML): 75%
- viability at 10 µM ([4]; Children hepatoblastoma): 85%
- viability at 20 µM ([4]; Children hepatoblastoma): 77%
- viability at 10 µM ([4]; Colon adenocarcinoma): 81%
- viability at 20 µM ([4]; Colon adenocarcinoma): 75%
- viability at 10 µM ([4]; Colorectal cancer): 84%
- viability at 20 µM ([4]; Colorectal cancer): 78%
- viability at 10 µM ([4]; Gastric cancer): 79%
- viability at 20 µM ([4]; Gastric cancer): 72%
- viability at 10 µM ([4]; Gastrointestinal tumor): 81%
- viability at 20 µM ([4]; Gastrointestinal tumor): 75%
- viability at 10 µM ([4]; Glioma): 84%
- viability at 20 µM ([4]; Glioma): 78%
- viability at 10 µM [4, 8]: 82%
- viability at 20 µM [4, 8]: 74%
- viability at 10 µM ([4]; Laryngeal cancer): 85%
- viability at 20 µM ([4]; Laryngeal cancer): 79%
- viability at 10 µM ([4]; Liver cancer): 85%
- viability at 20 µM ([4]; Liver cancer): 77%
- viability at 10 µM ([4]; Lung adenocarcinoma): 88%
- viability at 20 µM ([4]; Lung adenocarcinoma): 81%
- viability at 10 µM ([4]; Lung cancer): 87%
- viability at 20 µM ([4]; Lung cancer): 76%
- viability at 10 µM ([4]; Malignant melanoma): 82%
- viability at 20 µM ([4]; Malignant melanoma): 73%
- viability at 10 µM ([4]; Nasopharynx cancer): 85%
- viability at 20 µM ([4]; Nasopharynx cancer): 79%
- viability at 10 µM ([4]; Ovarian cancer): 88%
- viability at 20 µM ([4]; Ovarian cancer): 81%
- viability at 10 µM ([4]; Pancreatic cancer): 82%
- viability at 20 µM ([4]; Pancreatic cancer): 76%
- viability at 10 µM ([4]; Prostate cancer): 85%
- viability at 20 µM ([4]; Prostate cancer): 79%
- viability at 10 µM ([4]; Retinoblastoma): 85%
- viability at 20 µM ([4]; Retinoblastoma): 77%
- viability at 10 µM ([4]; Skin cancer): 82%
- viability at 20 µM ([4]; Skin cancer): 73%
- Content of PGE2 in culture supernatant of synoviocyte (x ± s) [5]: 27.64 ± 2.37 ng/mL
